Assay [1] concerns PAM 212 keratinocytes. Briefly: PAM 212 keratinocyte growth inhibition (photo-toxicity with UVA / dark-toxicity without light). It is filed as cell-based. As to conditions: UVA 320-400 nm, 1.28 J/cm2, growth 4-5 days. As for the experimental part:
Representative examples of the compounds described and claimed herein were tested in this assay for biological activity and found to be potent inhibitors of cell growth. Inhibition of cell growth was rapid, dependent on concentration, and required light activation. […] A description of this assay follows.
The photobiological activity was assayed using a keratinocyte cell line grown in a monolayer culture. In this assay, PAM 212 keratinocytes were grown in Dulbecco's Modified Eagle's medium supplemented with 10% newborn calf serum in a 5% carbon dioxide incubator. Cells were inoculated into 6-well Falcon plastic culture dishes at 25,000 cells per well. After 24 hours, the medium was charged to fresh growth medium supplemented with increasing concentrations of the test compounds or the control medium. Controls and test concentrations were analyzed in triplicate.
These plates were then incubated in a 37 degree C. carbon dioxide incubator. After 30 minutes culture plates were exposed to UVA light (UVA, 320-400 nm) emitted from a bank of four BLB fluorescent light tubes (F40 BL, Sylvania) placed approximately 10 cm above the cell culture plates. The incident light on the culture plates was 2.4 mW/cm^2 as measured with an International Light UV radiometer, Model IL 442A. The cells were exposed to 1.28 J/square centimeter of UVA.
After completion of the irradiation phase, the cell culture medium was drained, the cells refed with fresh growth medium and then re-incubated in the carbon dioxide incubator to allow for cell growth. After 4-5 days of growth the culture plates were removed from the incubator and the cell culture medium was drained. The cells were detached from the plates with trypsin and counted in a Coulter Counter. For control cells or for cells treated with test compounds, cell growth was determined as a percentage of control. […] This value is shown in Table I for a variety of phototherapeutics.

The subject of assay [2] is Mycobacterium tuberculosis H37Rv. Kind of assay: Antituberculosis primary in vitro screen, BACTEC 460. As to conditions: 12.5 μg/mL, 37° C; for inhibition at 12.5 µg/mL: Mycobacterium tuberculosis, H37RV, read-out: Anti-tubercular Activity (% inhibition). It counts as cell-based, Mycobacterium tuberculosis H37Rv ATCC 27294.
A further assay concerns Aspergillus niger. Kind of assay: Fungicidal assay, MIC against Aspergillus niger in MSY broth. It counts as cell-based. As to conditions: Table II, four days at 28° C, in the dark, no unit in table (ppm levels). As for the experimental part: The antifungal activities of compounds synthesized were measured by determining the inhibition of growth of Aspergillus niger in a standard liquid medium. The liquid growth medium is described as a solution of mineral salts and yeast extract (MSY). The MSY broth was prepared as described in ASTM G21-70, and amended with glucose (10 g/l) and yeast extract (1 g/l). An aliquot ([…]) of sterile medium was dispensed into each test well of a standard 96 well microplate (Corning No. 430247). Stock solutions of test compounds were prepared by dissolving the materials in 9:1 (v/v) solutions of acetone:methanol. Appropriate volumes of stock solutions were added to the test wells in order to achieve the desired ppm levels. Each test well (plus controls) was then inoculated with […] of a standardized suspension of Aspergillus niger. The cell suspension was prepared by suspending viable cells from a slant of potato dextrose agar into sterile, deionized water. The suspension was then adjusted to provide OD686 =0.28. This density contains approximately 2.5×10^7 CFU (colony forming units)/ml. The microplates were incubated in the dark for four days at 28° C. The optical density for each well at 686 nm was then recorded automatically using a SpectraMax 340 microplate reader (Molecular Devices Corp., Sunnyvale, Calif.). All wells were visually inspected in order to corroborate data from the instrument.
The antifungal activity was measured as minimum inhibitory concentrations or MIC of the 5'-substituted-4',5'-dihydropsoralens.

The test system of the next assay is Chlorella vulgaris. Kind of assay: Algicidal assay, MIC against Chlorella in modified Allen's medium. It counts as cell-based. Conditions: Table III, 14 days, 26 to 28° C, no unit in table (ppm). As for the experimental part: To assay the activity of the 5'-substituted-4',5'-dihydropsoralens of the invention against Chlorella, the Allen method (A. A. Allen, […], Journal of Phycology, 4, 1-4) was employed. […] The minimum inhibitory concentration (MIC) of the compounds tested against the fungus Aspergillus niger using an MSY broth is shown in Table II.
Test tubes containing modified Allen's medium were treated with increasing dosages of the compound to be tested and inoculated with a suspension of algal cells. After fourteen days of incubation, algal growth was rated as positive or negative. The minimum inhibitory concentration (MIC) of the compound is the smallest dosage showing negative algal growth.
The apparatus required consisted of sterilized test tubes, 18-150 mm and an incubator, capable of a constant (±2° C.) temperature within 26 to 28° C. The following procedure was used:
(1) Stock solutions (g/200 g deionized water each) were generated with: K2 HPO4, 1.50 g; MgSO4, 7H2 O, 1.50 g; Na2 CO3, 0.80 g; CaCl2 2H2 O, 0.50 g; Na2 SiO3 9H2 O, 1.16 g, and Citric acid, 1.20 g.
(3) The modified Allen's medium was prepared in a volumetric flask by the addition of 1.5 g NaNO3, 5.0 mL stock solution K2 HPO4, 5.0 mL stock solution MgSO4 -- 7H2 O, 5.0 mL Stock solution Na2 CO3, 10.0 mL stock solution CaCl2 2H2 O, 10.0 mL stock solution Na2 SiO3 9H2 O, 1.0 mL stock solution Citric acid and 1.0 mL stock solution PIV metal with enough deionized water to make 1000 mL of medium (Allen, 1968). The pH was adjusted to 7.8 and 5 mL of medium is added to each test tube. The tubes were sterilized in the autoclave for 20 minutes at 15 psi at 121° C. The test tubes were allowed to cool to 45-50° C. before adding the test compound and the inoculurn to the medium.
(4) The inoculum was a cell suspension from a 14-day-old culture of Chlorella vulgaris (UTEX 26, University of Texas) that was grown in modified Allen's medium.
The concentration of the stock solution in water or acetone of the compound to be tested is dependent on the largest dose required to be tested. Dilutions of the stock solution were made so that 100 μL of the stock solution of the corresponiding dilution was added per test tube. 100 μL of the solvent was added to the control to prepare the stock solution.
The inoculation consists of the addition of 100 μL of inoculurn per test tube.
The incubation of the control test tube and the test tubes containing compound and inoculum occurred in an incubator set between 26 to 28° C., with the temperature not varying more than ±2° C. Light was provided by plant growth fluorescent tubes and the test tubes were allowed to stand in the incubator for 14 days.
Rating of the test tubes containing different dosages of the compound will be positive or negative. […] If the medium in the rubes remains colorless, a negative (not contaminated) rating is given. The control is always positive. The minimum inhibitory concentration (MIC) of the compound is determined to be the smallest dosage showing negative algal growth.

Assay [3] deals with PAM 212 keratinocytes. Briefly: PAM 212 keratinocyte growth inhibition (photo-toxicity with UVA / dark-toxicity without light). It is filed as cell-based.
Where [4] appears, read: Mus musculus, PAM212, light or radiation study.

Where a name gives a salt, the structure may show the parent alone. Read-outs that look alike come from different tables or passages of the source.

From patent US6255324A, “Amino-and mercurio-substituted 4',5'-dihydropsoralens and therapeutical uses thereof” (priority 1998, dated 2001) come the findings set out here.

Turning to `Cc1cc(=O)oc2c(C)c3c(cc12)CC(CI)O3` (centres unmarked) [R = H, T = I, 4,8-Dimethyl-5'-iodomethyl-4',5'-dihydropsoralen], half-maximal inhibition with PAM 212 keratinocytes [1] (setting [4]) (IC50) required 1.1 µM. The inhibition (as a rule, the drop in the measured response relative to a control, in per cent) at 12.5 µg/mL in assay [2] stood at 24%.

Consider `Cc1cc(=O)oc2c(C)c3c(cc12)CC(CN(C)C)O3` (centres unmarked) [R = H, T = dimethyl amino iodide salt, 4,8-Dimethyl-5'-[(N,N-dimethylamino)methyl]-4',5'-dihydropsoralen Hydroiodide Salt], for which, in the assay on PAM 212 keratinocytes [1] (setting [4]), the IC50 – broadly, the concentration that inhibits the measured activity by half – amounted to 0.1 µM. Moreover, in assay [2], the inhibition at 12.5 µg/mL was 4%.

The compound `Cc1c(I)c(=O)oc2c(C)c3c(cc12)CC(CI)O3` (centres unmarked) [R = I, T = I, 3-Iodo-4,8-dimethyl-5'-iodomethyl-4',5'-dihydropsoralen] gave an IC50 in the assay with PAM 212 keratinocytes [1] (setting [4]) of 4.2 µM. In assay [2], the inhibition at 12.5 µg/mL came out at 17%.

Take `[I][Hg][CH2]C1Cc2ccccc2O1` (centres unmarked) [T = HgI, 2-Iodomercurimethyl-2,3-dihydrobenzofuran]: the IC50 came to 5.7 µM in the assay on PAM 212 keratinocytes [1] and 12 µM with PAM 212 keratinocytes [3]. Moreover, the MIC with Aspergillus niger is recorded as below 8; in the assay on Chlorella vulgaris, 10. In addition, the “Anti-tubercular Activity (% inhibition)” value in assay [2] was 99%.
